Legend:
[1] = test system: ileum pacemaker potentials; experiment: MEA recording of pacemaker potentials (slow waves), isolated ileum; assay type: cell-based, Suncus murinus; conditions: ileal tissues
Method: (§1) Pacemaker potentials were recorded extracellularly on a 60-channel MEA system using full-thickness GI segments isolated from Suncus murinus. Basic slow-wave parameters, including frequency, amplitude, slope, period, and power partitions, were derived. Signal regularity was also evaluated using detrended fluctuation analysis and sample entropy analysis.
(§2) Electrical recordings were taken after the animals were euthanised by carbon dioxide asphyxiation. […] The mesentery was removed, and the lumen contents were flushed with Krebs' medium. Segments (−1 cm) of duodenum, ileum, and colon were then isolated, but the stomach was kept intact. All tissue segments and the entire stomach were incubated in Krebs' medium containing nifedipine (1 μM; Sigma Aldrich, St Louis, MO, USA) for 15 min to inhibit smooth muscle activity. Pacemaker potentials were recorded using an MEA platform (MEA1060 1200×; Multichannel Systems, Reutlingen, Germany) as previously described. Briefly, tissues were placed onto the electrode field of an MEA chip (60-channel, 8×8 configuration, 3D-tip-shaped electrodes with a height of […] and an inter-electrode distance of 200 μm; Ayanda Biosystems SA, Lausanne, Switzerland). Intestinal segments were aligned horizontally to the recording electrode field, while the stomach was oriented with the antrum facing the recording electrode field. The chamber temperature was maintained at 37° C. and the sampling frequency was 1 kHz. […] All data were recorded and saved using MC_Rack (v 4.6.2, Multichannel Systems).
(§3) Data analysis included basic slow-wave feature extraction using a custom automated program. […] The time point of drug administration was automatically identified based on the signal disturbance. The period of signal disturbance (20 s before and 40 s after the peak of the disturbance) was excluded from the analysis. Data were filtered using a passband between 0.1 Hz and 1 Hz and a stopband between 0.01 Hz and 2 Hz. The basic slow-wave features extracted were similar to those extracted in the inventors' previous studies. However, instead of using several templates and scripts written in Microsoft Excel and Spike 2, a one-step automatic and blinded MATLAB programme was used for data analysis. There were four major changes to the data analysis process as compared to the inventors' previous studies. First, auto-identification of the drug disturbance time point was used, rather than manual identification. Second, standardised signal filters were built in MATLAB to match the entire data analysis pipeline. […] Frequency partitioning was performed by segmenting the power spectrum of 0-50 cpm into the following four segments: brady-rhythm (within the range 2-[DF−1] cpm), normal-rhythm ([DF±1] cpm), tachy-rhythm (within the range [DF+1]-40 cpm), and out-of-range frequencies (<2 cpm and >40 cpm). Third, waveforms were identified using the MATLAB ‘findpeaks’ function, with a minimum peak height of […] at baseline and […] after drug treatment, with a step time of 5.4 s for the intestine and 12 s for the stomach. The average peak-to-peak amplitude, slope, and period were derived for all detected waveforms. Fourth, propagation velocity was derived using phase-difference measurements, based on the auto-select seed electrode with the highest percentage of normal rhythms.
(§4) Dominant activation pattern identification included a phase-based analysis performed as previously described (Liu et al., 2021). Briefly, high-frequency spikes with amplitudes greater than […] were masked. Continuous frequencies were identified using continuous wavelet transformation, and the transformed data were used to plot spectrograms. […] High quality data were subjected to Hilbert transformation to identify the phase and frequency of the signals. Individual activation times were clustered using k-means clustering every 20 s and major activation patterns were grouped using a structural similarity index.

[2] = test system: colon pacemaker potentials; experiment: MEA recording of pacemaker potentials (slow waves), isolated colon; assay type: cell-based, Suncus murinus; conditions: colonic tissues
Method: as §1, §2, §3, §4

Cl.NCCc1ccc(O)c(O)c1 [dopamine, 3-Hydroxytyramine hydrochloride]
DFA fluctuation function (larger scale 26-46) ([1]; 100 nM, baseline 1.71±0.17, p<0.05, n=6): 1.55±0.13 | DFA fluctuation function (smaller scale 3-25) ([1]; 100 nM, baseline 2.35±0.14, p<0.05, n=6): 2.28±0.11 | waveform period ([1]; 100 nM, baseline 2.66±0.40, p<0.05, n=7): 3.73±1.05 | percentage of dominant patterns (based on post-treatment data, FIG. 3E), second pattern ([1]; 100 nM, baseline 15.6±10.3, p<0.05, n=7): 4.2±4.2% | percentage of dominant patterns (based on post-treatment data, FIG. 3E), third pattern ([1]; 100 nM, baseline 16.8±6.6, p<0.01, n=7): 3.0±2.6% | percentage of dominant baseline activation patterns, third pattern ([1]; 100 nM, baseline 17.2±4.8, p<0.0001, n=7): 2.2±2.6% | percentage of dominant baseline activation patterns, second pattern ([1]; 100 nM, baseline 21.5±1.7, p<0.0001, n=7): 2.6±1.6% | average frequency (AF) ([1]; 100 nM, baseline 23.5±3.0, p<0.05, n=7): 19.4±3.6 cpm | percentage of brady-rhythms ([1]; 100 nM, baseline 31.8±11.7, p<0.05, n=7): 60.0±26.0% | percentage of dominant baseline activation patterns, first pattern ([1]; 100 nM, baseline 32.8±5.7, p<0.01, n=7): 3.8±4.5% | percentage of normal rhythms ([1]; 100 nM, baseline 46.1±5.6, p<0.01, n=7): 4.8±17.0% | amplitude of slow waves ([1]; 100 nM, baseline 165.2±20.5, p<0.001, n=7): 119.2±20.0 μV | slope of waveforms ([1]; 100 nM, baseline 257.5±59.8, p<0.01, n=7): 160.1±42.0 μV s^−1 | dominant power (DP) of slow waves ([1]; 100 nM, baseline 780.4±276.9, p<0.001, n=7): 177.5±83.0 μV^2 | DFA fluctuation function (larger scale 26-46) ([1]; 1 μM, baseline 1.78±0.24, p<0.05, n=8): 1.64±0.28 | number of groups of activation patterns ([1]; 1 μM, baseline 6.3±0.8, p<0.05, n=7): 7±0.8 | percentage of dominant patterns (based on post-treatment data, FIG. 3E), first pattern ([1]; 1 μM, baseline 8.9±9.0, p<0.01, n=6): 31.4±13.7% | percentage of brady-rhythms ([1]; 1 μM, baseline 27.5±7.8, p<0.05, n=7): 46.3±22.7% | percentage of dominant baseline activation patterns, first pattern ([1]; 1 μM, baseline 35.2±6.0, p<0.001, n=6): 13.0±6.7% | percentage of normal rhythms ([1]; 1 μM, baseline 50.6±10.8, p<0.01, n=7): 24.5±11.8% | amplitude of slow waves ([1]; 1 μM, baseline 187.1±76.9, p<0.01, n=7): 138.0±66.2 μV | slope of waveforms ([1]; 1 μM, baseline 300.9±117.5, p<0.01, n=7): 204.4±91.9 μV s^−1 | dominant power (DP) of slow waves ([1]; 1 μM, baseline 1,070.5±745.1, p<0.05, n=7): 460.3±297.0 μV^2 | representative spectrogram (left), effect on DF ([1]; 10 μM): slightly shifted towards a higher frequency | representative spectrogram (right), effect ([1]; 10 μM): extra peaks appearing to the left of the baseline DF | wave fronts counted in representative spatio-temporal map (1 min) ([1]; 10 μM, 26 before treatment): 30 | waveform period ([1]; 10 μM, baseline 2.30±0.18, p<0.05, n=6): 3.05 ± 0.68 s | number of groups of activation patterns ([1]; 10 μM, baseline 9.3±0.7, p<0.05, n=6): 6.9±1.0 | percentage of dominant patterns (based on post-treatment data, FIG. 3E), first pattern ([1]; 10 μM, baseline 17.2±11.5, p<0.05, n=5): 32.3±13.2% | percentage of brady-rhythms ([1]; 10 μM, baseline 32.8±12.9, p<0.05, n=6): 63.3±28.5% | percentage of dominant baseline activation patterns, first pattern ([1]; 10 μM, baseline 35.7±8.4, p<0.05, n=5): 19.2±16.4% | percentage of normal rhythms ([1]; 10 μM, baseline 50.9±9.8, p<0.0001, n=6): 9.2±10.9% | amplitude of slow waves ([1]; 10 μM, baseline 229.6±115.9, p<0.05, n=6): 149.1±56.7 μV | slope of waveforms ([1]; 10 μM, baseline 383.7±185.8, p<0.05, n=6): 238.2±95.7 μV s^−1 | DFA fluctuation function (larger scale 26-46) ([1]; 100 μM, baseline 1.63±0.23, p<0.05, n=7): 1.43±0.21 | DFA fluctuation function (smaller scale 3-25) ([1]; 100 μM, baseline 2.35±0.12, p<0.05, n=7): 2.25±0.05 | percentage of dominant patterns (based on post-treatment data, FIG. 3E), third pattern ([1]; 100 μM, baseline 17.8±7.4, p<0.05, n=4): 6.8±6.1% | percentage of dominant baseline activation patterns, third pattern ([1]; 100 μM, baseline 19.1±2.8, p<0.01, n=4): 5.9±6.6% | percentage of dominant baseline activation patterns, second pattern ([1]; 100 μM, baseline 23.5±2.8, p<0.001, n=4): 5.7±5.1% | percentage of dominant baseline activation patterns, first pattern ([1]; 100 μM, baseline 27.6±4.1, p<0.01, n=4): 9.4±9.5% | dominant frequency (DF), change vs baseline ([1]; 0.1-100 μM, p>0.05, n=6-7): No significant differences | propagation velocities, effect ([1]; 0.1-100 μM, p>0.05, n=6-7): did not affect | average SampEn (larger scale 6-50), effect ([1]; 0.1-100 μM, p>0.05, n=6-8): did not change | average SampEn (smaller scale 1-5), effect ([1]; 0.1-100 μM, p>0.05, n=6-8): did not change | DFA fluctuation function (smaller scale 3-25) ([1]; 1 M, baseline 2.29±0.23, p<0.05, n=8): 2.19±0.20 | waveform period ([1]; 1 M, baseline 2.53±0.50, p<0.05, n=7): 3.10 ± 0.74 s | DFA fluctuation function (smaller scale 3-25) ([1]; 10 M, baseline 2.24±0.32, p<0.05, n=8): 2.13±0.34 | average SampEn (larger scale 6-50) ([2]; 100 nM, baseline 0.33±0.06, p<0.01, n=6): 0.28±0.07 | average SampEn (smaller scale 1-5) ([2]; 100 nM, baseline 0.59±0.03, p<0.01, n=6): 0.62±0.03 | DFA fluctuation function (larger scale 26-46) ([2]; 100 nM, baseline 1.80±0.09, p<0.001, n=6): 1.58±0.11 | DFA fluctuation function (smaller scale 3-25) ([2]; 100 nM, baseline 2.37±0.07, p<0.01, n=6): 2.26±0.06 | average frequency (AF) ([2]; 100 nM, baseline 23.9±2.4, p<0.05, n=7): 23.3±1.6 cpm | DFA fluctuation function (smaller scale 3-25) ([2]; 1 μM, baseline 2.30±0.33, p<0.05, n=8): 2.23±0.34 | number of groups of activation patterns ([2]; 1 μM, baseline 5.4±1.0, p<0.05, n=6): 6.4±1.1 | percentage of tachy-rhythms ([2]; 1 μM, baseline 18.3±12.6, p<0.05, n=6): 55.5±34.8% | percentage of dominant patterns (based on post-treatment data, FIG. 3E), first pattern ([2]; 1 μM, baseline 19.1±12.2, p<0.05, n=6): 39.6±15.6% | percentage of normal rhythms ([2]; 1 μM, baseline 41.4±9.7, p<0.01, n=6): 14.5±18.1% | propagation direction and speed in video (FIGS. 12A-12B) ([2]; 10 μM): relatively constant | representative spectrogram, effect ([2]; 10 μM): extra peaks appeared to the right of the original DF | wave fronts counted in representative spatio-temporal map (1 min) ([2]; 10 μM, 32 before treatment): 32 | average SampEn (smaller scale 1-5) ([2]; 10 μM, baseline 0.57±0.06, p<0.05, n=6): 0.60±0.04 | DFA fluctuation function (smaller scale 3-25) ([2]; 10 μM, baseline 2.24±0.23, p<0.05, n=6): 2.11±0.27 | number of groups of activation patterns ([2]; 10 μM, baseline 6±0.7, p<0.05, n=9): 6.8±1.1 | percentage of normal rhythms ([2]; 10 μM, baseline 42.4±6.9, p<0.05, n=9): 13.1±17.4% | DFA fluctuation function (larger scale 26-46) ([2]; 100 μM, baseline 1.63±0.19, p<0.05, n=10): 1.46±0.21 | DFA fluctuation function (smaller scale 3-25) ([2]; 100 μM, baseline 2.31±0.12): 2.19±0.13 | percentage of dominant patterns (based on post-treatment data, FIG. 3E), third pattern ([2]; 100 μM, baseline 20.3±10.8, p<0.0001, n=5): 7.5±5.8% | percentage of dominant baseline activation patterns, first pattern ([2]; 100 μM, baseline 34.4±3.7, p<0.01, n=4): 11.4±12.9% | percentage of brady-rhythms ([2]; 100 μM, baseline 34.7±9.1, p<0.05, n=6): 53.9±26.8% | percentage of normal rhythms ([2]; 100 μM, baseline 53.1±8.1, p<0.05, n=6): 33.4±23.3% | amplitude of slow waves ([2]; 100 μM, baseline 267.3±80.9, p<0.01, n=6): 199.7±48.8 μV | slope of waveforms ([2]; 100 μM, baseline 439.3±124.3, p<0.001, n=6): 299.0±76.5 μV s^−1 | dominant frequency (DF), change vs baseline ([2]; 0.1-100 μM, p>0.05, n=6-9): No significant differences | dominant power (DP), change vs baseline ([2]; 0.1-100 μM, p>0.05, n=6-9): No significant differences | propagation velocities, effect ([2]; 0.1-100 μM, p>0.05, n=6-9): did not affect | waveform period, change vs baseline ([2]; 0.1-100 μM, p>0.05, n=6-9): No significant differences | average SampEn (smaller scale 1-5) ([2]; 1 M, baseline 0.57±0.06, p<0.01, n=8): 0.59±0.05 | DFA fluctuation function (larger scale 26-46) ([2]; 1 M, baseline 1.74±0.26, p<0.01, n=8): 1.61±0.29 | DFA fluctuation function (larger scale 26-46) ([2]; 10 M, baseline 1.73±0.16, p<0.05, n=6): 1.53±0.19

Reference: patent publication US20230352136A1, “SYSTEMS AND METHODS TO EVALUATE DRUG-INDUCED GASTROINTESTINAL DYSRHYTHMIA” (The Chinese University of Hong Kong, priority 2022, published 2023)
